In paper PMC7180939, “Antiplasmodial Activity of p-Substituted Benzyl Thiazinoquinone Derivatives and Their Potential against Parasitic Infections” (Molecules, 2020):
Where two headings read alike, the source gives them in different places.

What was measured:
[1] = test system: chloroquine-sensitive (D10) strain of P. falciparum; assay: P. falciparum drug susceptibility assay (pLDH), D10 strain; type: cell-based; conditions: Plasmodium falciparum, read-out: D10 IC50
Experimental: (§1) All reagents were from Sigma Aldrich, Milan, Italy unless indicated otherwise. As reported in the literature, the chloroquine-sensitive (D10) and chloroquine-resistant (W2) strains of P. falciparum were maintained in vitro at 5% hematocrit medium (constituted of human type Apositive red blood cells) in RPMI 1640 (EuroClone, Celbio, Italy) with the addition of 1% AlbuMax (Invitrogen, Milan, Italy), 0.01% hypoxanthine, […], and […]. The resulting cultures were incubated at 37 °C in a mixture of standard gas with the following composition: 1% O2, 5% CO2, and 94% N2. […] Drugs were placed in 96 well flat-bottom microplates and a series of dilutions performed. Asynchronous cultures (parasitemia of 1–1.5%; 1% final hematocrit) were aliquoted into the plates and incubated for 72 h at 37 °C. The cultures were washed with PBS before the chemosensitivity assay while the parasite growth was determined spectrophotometrically (OD650) by measuring the parasite lactate dehydrogenase (pLDH) activity. These measurements were made according to the modified version of Makler’s method both in control and drug-tested cultures. Antiplasmodial activity is expressed as 50% inhibitory concentrations (IC50), which means the dose of compounds necessary to inhibit cell growth by 50%. Each IC50 value is the mean standard deviation of at least three separate experiments performed in duplicate.

[2] = test system: chloroquine-resistant (W2) strain of P. falciparum; assay: P. falciparum drug susceptibility assay (pLDH), W2 strain; type: cell-based; conditions: Plasmodium falciparum, read-out: W2 IC50
Experimental: as §1

[3] = test system: human microvascular endothelial cells (HMEC-1); assay: Cytotoxicity assay on HMEC-1 cell line; type: cell-based; conditions: cytotoxicity on HMEC-1 cell line
[4] = test system: embryonic murine fibroblasts (NIH-3T3 cell line); parameters: method as in PMID 31718145; conditions: cytotoxicity on NIH-3T3 cell line; cited from earlier work
P. falciparum = test system: P. falciparum; parameters: method as in PMID 30640072; conditions: D10 and W2 strains, earlier work; cited from earlier work
[5] = parameters: method as in PMID 31718145; conditions: cited from earlier work
S. mansoni = test system: S. mansoni; parameters: method as in PMID 31718145; conditions: schistosomula, adult worm pairs, juvenile parasites, eggs; cited from earlier work
[6] = CQ-sensitive D10 strain, pLDH assay, 72 h, mean ± SD of three experiments in duplicate
[7] = CQ-resistant W2 strain, pLDH assay, 72 h, mean ± SD of three experiments in duplicate

Structure (SMILES)	IC50 [1, 6] [µM]	IC50 [2, 7] [µM]	IC50 [3] [µM]	also measured
COC1=C(Cc2ccccc2)C(=O)C=CC1=O [Compound 23]				activity against S. mansoni (in words) (S. mansoni): inactive; antiplasmodial activity (in words) (P. falciparum): absence of activity
CCN(CC)CCCC(C)Nc1ccnc2cc(Cl)ccc12 (stereo not shown) [CQ, chloroquine, reference compound]				IC50 ([1]; D10, 72 h): 0.04 µM; IC50 ([2]; W2, 72 h): 0.54 µM
COC1=C(Cc2ccc(OC(F)(F)F)cc2)C(=O)C2=C(NCCS2(=O)=O)C1=O [Compound 27]	1.12 ± 0.4	0.81 ± 0.19	3.59 ± 0.72	cLogD [5]: 1.37
COC1=C(Cc2ccc(C(F)(F)F)cc2)C(=O)C2=C(NCCS2(=O)=O)C1=O [Compound 25]	5.06 ± 1.68	5.02 ± 1.81	20.4 ± 1.6	
CC[C@@]1(O)C(=O)OCc2c1cc1n(c2=O)Cc2cc3ccccc3nc2-1 [Camptothecin, reference compound]			0.018	

The next lines start with results.

IC50 [1, 6] [µM]	IC50 [2, 7] [µM]	Structure (SMILES)	IC50 [3] [µM]	also measured
0.6 ± 0.21	0.7 ± 0.22	COC1=C(Cc2ccccc2)C(=O)C2=C(NCCS2(=O)=O)C1=O [Compound 22]	17.6 ± 1.4	IC50 [4]: 88.6 ± 7.7 µM; antiplasmodial activity (in words) (P. falciparum): active in the range of low-micromolar concentrations
1.21 ± 0.2	1.22 ± 0.24	COC1=C(Cc2ccc(OC)cc2)C(=O)C2=C(NCCS2(=O)=O)C1=O [Compound 26]	17.9 ± 1.1	IC50 [4]: > 100 µM; cLogD [5]: 0.33
1.63 ± 0.35	1.9 ± 1.05	COC1=C(Cc2ccc(Cl)cc2)C(=O)C2=C(NCCS2(=O)=O)C1=O [Compound 24]	8.51 ± 0.76	
